In EPA's ToxValDB 9.5 (doi:10.2903/j.efsa.2018.5229):
In brackets after ≈: the same amount, converted by molar mass.

Legend:
Anas platyrhynchos = conditions: acute; oral; unspecified; mortality
Apis mellifera = conditions: acute, mortality
Canidae = conditions: chronic; duration: 1 years; oral; Dog Other; body weight
Colinus virginianus = conditions: reproduction developmental
Daphnia magna = conditions: chronic/long-term; duration: 21 days; reproduction
Ictalurus punctatus = conditions: acute; duration: 96 hours; mortality
Oryctolagus sp. = conditions: reproduction developmental; mortality
Pimephales promelas = conditions: chronic/long-term; duration: 35 days
Rattus norvegicus = conditions: oral
Tagia sp. = conditions: chronic/long-term; reproduction
Chrysoperla externa = assay: LR50; higher = less toxic; conditions: not reported; mortality
Typhlodromus pyri = assay: LR50; higher = less toxic; conditions: not reported; mortality

## CCOC(=O)C1CC(=O)C(=C(O)C2CC2)C(=O)C1 (centres undefined) [Trinexapac-ethyl]
Anas platyrhynchos
  LD50: > 2000 mg/kg-day
Apis mellifera; dermal
  LD50: > 100 µg/piece
Apis mellifera; oral, unspecified
  LD50: > 83 µg/piece
Canidae
  NOAEL: 32 mg/kg-day
Colinus virginianus
  NOEL: 17.6 mg/kg-day
Daphnia magna
  NOEC: 2.4 mg/L
Ictalurus punctatus
  LC50: 35 µg/mL (≈ 139 µM)
Oryctolagus sp.
  NOAEL: 60 mg/kg-day
Pimephales promelas
  NOEC: 0.41 mg/L
Rattus norvegicus; acute, mortality
  LD50: 4210 mg/kg-day
Rattus norvegicus; subchronic, duration: 90 days, body weight
  NOAEL: ≤ 34 mg/kg-day
Tagia sp.
  NOEC: 81.9 mg/kg
Chrysoperla externa
  LR50: > 400 g/ha
Typhlodromus pyri
  LR50: > 15 g/ha
